# Results published in publication PMC9446799, “Preparation of a camptothecin analog FLQY2 self-micelle solid dispersion with improved solubility and bioavailability” (Journal of Nanobiotechnology, 2022).
# Counter-ions that a name gives are not always drawn.
# Legend:
# [1] = system: HCT 116 and MIA PaCa-2 cells; assay: MTT cytotoxicity assay; format: cell-based, Human
# Procedure: (§1) The sample preparation: FLQY2 was dissolved in DMSO as a stock solution, and the stock solution was diluted by DMEM medium as a working solution. FLQY2-SD/ FLQY2-PM powder was dissolved in water, then the FLQY2-SD/FLQY2-PM solution was diluted by DMEM medium.
# (§2) The cells were cultured in McCoy’s 5A medium for HCT 116 or DMEM medium for MIA PaCa-2 cells. All mediums contained 10% FBS and 1% penicillin–streptomycin solution. The cytotoxicity of FLQY2/FLQY2-SD was measured against these cells using an MTT assay. Briefly, 1 × 10^4 cells per well were seeded into 96 well plates for 24 h. Different concentrations of FLQY2 /FLQY2-SD solution and blank fresh medium were added to the plates and then incubated for 72 h. After adding MTT solution (5 mg/mL) for 4 h, 150 μL of DMSO was added to dissolve the formazan crystals. Absorbance at 570 nm with the control wavelength of 630 nm was used in infinite M200 pro (Tecan, Switzerland). Cell viability was expressed as a percentage relative to the blank control.
# [2] = Identification of metabolites in plasma, urine and feces (UPLC-TripleTOF); conditions: ESI−, [M-H]-; F, U, P not defined in the table (feces, urine, plasma samples analysed)
# Procedure: The plasma, urine, and feces samples were processed as described above without IS, and the remaining volumes were made up of the precipitant. Chromatographic analysis was performed on an UltiMate 30 (Thermo Fisher Scientific, San Jose, CA, USA). Separation was carried out on an ACQUITY UPLC HSS T3 (1.8 μm, 2.1 × 100 mm) at 40 °C, 2 µL injection volume. In the positive ion mode, the mobile phase consisted of water containing 0.1% formic acid (A) and acetonitrile containing 0.1% formic acid (B). The gradient elution was performed with 5% B for 1.5 min, increasing to 10% B at 2.5 min, then ramping to 40% B at 14 min, rising to 95% B at 22 min, and remaining at 95% B until 25 min, and finally, the column was reconditioned with 5% B for 5 min. The mobile phase consisted of water containing 2 mM ammonium acetate (A) and acetonitrile (B) in the negative ion mode. The gradient elution was the same as in the positive ion mode.
# Mass spectrometric analysis was acquired by Peakview 2.2 and MetabolitePilot 2.0.4 software using a quadrupole time-of-flight mass spectrometry (TripleTOF™ 5600, AB Sciex Corporation., Foster City, CA) with MS scans and information dependent acquisition (IDA) MS/MS scans. The mass spectrometer was operated in both positive and negative ion mode with electrospray ionization (ESI) source at 650 ℃. […]
# HT-29 tumor = assay: Anticancer activity in vivo in HT-29 tumor-bearing mice; set-up: species or system BALB/c mice; conditions: 100 mpk, i.p./QW, day 28
# Procedure: 0.1 mL suspension of HT-29 cells were inoculated in female BALB/c mice at a density of 2 × 10^7/mL. After the tumors grew to 100–200 mm^3 (the day recorded as D0), the mice were randomly grouped and administered with Irinotecan hydrochloride (100 mpk, i.p./QW) (n = 6), Paclitaxel-albumin (15 mpk, i.v./Q4D) (n = 6), FLQY2-SD (1.5 mpk, p.o./QW) (n = 6), FLQY2-SD (1 mpk, p.o./QW) (n = 6), and saline as a blank control (n = 12). The tumor volume and body weight of the mice were recorded every 2 days. On day 28, the mice were sacrificed, and the tumors were surgically removed and weighed. Some parameters were calculated as follows.
# tumor volume (TV): TV=1/2×ab^2
# relative tumor volume (RTV): RTV=Vt/V0
# tumor growth inhibition (TGI): TGI=(1-VT28-VT0/VC28-VC0)×100%
# Where a and b are the length and width of the tumors; V0 and Vt are the tumor volume measured at D0 and at each measurement time Dt; VT28 and VT0 are the mean tumor volume in the treatment group at D28 and D0; VC28 and VC0 are the mean tumor volume in the negative control group at D28 and D0.
# [3] = Inhibition of crystallization (solvent-shift method); format: physicochemical; conditions: for saturated concentration of FLQY2: in Soluplus aqueous solution (2 mg/mL), 37 °C
# Procedure: Inhibition of crystallization was studied using the solvent-shift method. 3 mL FLQY2 DMSO solution (1 mg/mL) was mixed respectively with six different 30 mL aqueous solution including six carriers (2 mg/mL) and stirred at 120 r/min under 37 °C. 0.5 mL solution was collected at 0.0833, 0.5, 1, 2, 4, 6, 8 h, filtered through 0.22 μm filters, and determined the dissolved FLQY2 by HPLC.
# MTT cytotoxicity assay = format: cell-based, Human; conditions: human
# Procedure: as §1, §2
# [4] = system: HCT 116 and Hep G2 cell lines; set-up: method as in PMID 31309350; conditions: cited from earlier work
# P-gp = conditions: cited from earlier work
compound,measurement,setting,value
Polyvinyl caprolactam-polyvinyl acetate-polyethylene glycol graft copolymer [Soluplus®],cell viability,[1],exceeded 91.0 ± 3.8%
CC[C@@]1(O)OCc2c1cc1n(c2=O)Cc2c-1nc1cc3c(cc1c2-c1ccc(C(F)(F)F)cc1)OCO3 [M3],Source (biological sample in which detected),[2],"F, U, P"
C=c1c(=O)n2c(c/c1=C(/O)CC)-c1nc3cc4c(cc3c(-c3ccc(C(F)(F)F)cc3)c1C2)OCO4 [M1],Source (biological sample in which detected),[2],"F, U, P"
CCc1c2c(nc3ccc(OC(=O)N4CCC(N5CCCCC5)CC4)cc13)-c1cc3c(c(=O)n1C2)COC(=O)[C@]3(O)CC [Irinotecan hydrochloride],TGI,HT-29 tumor,66.5%
"CC[C@@]1(O)C(=O)OCc2c1cc1n(c2=O)Cc2c-1nc1cc3c(cc1c2-c1ccc(C(F)(F)F)cc1)OCO3 [FLQY2, 7-p-trifluoromethylphenyl-FL118]",saturated concentration of FLQY2,[3]; at 5 min,51.60 µg/mL
same,saturated concentration of FLQY2,[3]; at 8 h,48.76 µg/mL
same,crystallization inhibition outcome,"[3]; mixture including PEG4000, PEG6000, PVP Va64, HS 15 and P407 (2 mg/mL)",crystallization and precipitation
same,"viability at 2 h, 1 µM",MTT cytotoxicity assay,> 92.5%
same,cytotoxicity,[1],dose-dependent toxicity
same,IC50,[4],nM level
same,efflux ratio,P-gp,< 2
